Experimental data as given in paper PMC5623949, “Exploiting the 2-Amino-1,3,4-thiadiazole Scaffold To Inhibit Trypanosoma brucei Pteridine Reductase in Support of Early-Stage Drug Discovery” (ACS Omega, 2017).

Assays:
[1] = system: THP-1-derived macrophages; assay: Cytotoxicity against THP-1 macrophages (MTT); format: cell-based, human; conditions: 100 μM
Method: The effect of compounds 3k, 4h, 4m, and 4o on THP-1-derived macrophages was assessed by the colorimetric MTT assay [3-(4,5-dimethylthiazol-2-yl)-2,5-diphenyl tetrazolium bromide]. Briefly, 1 × 10^6 THP-1 cells were differentiated into macrophages by addition of 20 ng/mL of phorbol-myristate 13-acetate (PMA, Sigma-Aldrich) for 18 h, followed by replacement with a fresh medium and further incubation for 24 h. The cells were incubated with compounds ranging from 100 to 3 μM after dilution in the RPMI complete medium containing a maximum amount of 1% DMSO. After incubation for 72 h at 37 °C and 5% CO2, the medium was removed and 0.5 mg/mL MTT solution was added. The plates were incubated for 4 additional hours to allow viable cells to convert MTT into a purple formazan product. Solubilization of formazan crystals was achieved by addition of 2-propanol, and absorbance was read at 570 nm using a Synergy 2 multi-mode reader (BioTek).

CYP3A4 = CYP3A4 (Homo sapiens, UniProt P08684); assay: in vitro; parameters: cytochrome P450 isoform inhibition liability assay
CYP3A4, sequence (P08684 whole entry, canonical isoform): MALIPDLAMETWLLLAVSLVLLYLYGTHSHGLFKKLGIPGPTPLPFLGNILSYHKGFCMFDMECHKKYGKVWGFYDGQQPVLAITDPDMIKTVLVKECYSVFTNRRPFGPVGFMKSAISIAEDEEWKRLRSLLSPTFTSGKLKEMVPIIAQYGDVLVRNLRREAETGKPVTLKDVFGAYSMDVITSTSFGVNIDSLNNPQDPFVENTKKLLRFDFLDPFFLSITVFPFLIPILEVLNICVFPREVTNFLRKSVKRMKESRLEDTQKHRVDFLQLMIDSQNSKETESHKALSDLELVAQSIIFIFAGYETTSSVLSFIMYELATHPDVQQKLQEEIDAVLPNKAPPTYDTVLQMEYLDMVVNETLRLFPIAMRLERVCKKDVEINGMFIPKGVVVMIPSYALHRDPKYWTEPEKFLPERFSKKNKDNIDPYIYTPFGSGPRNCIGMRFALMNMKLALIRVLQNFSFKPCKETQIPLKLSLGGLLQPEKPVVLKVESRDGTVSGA

SMILES: Nc1nnc(NCc2ccc(-c3ccccc3)cc2)s1 [4m]
- toxicity in THP-1 cells alone vs combination with equimolar MTX [1]: no increase in toxicity
- IC50 (CYP3A4): 12.1 µM

SMILES: Nc1nnc(NCCc2cccs2)s1 [4o, N2G(2G(thiophenG2Gyl)ethyl)G1,3,4GthiadiazoleG2,5Gdiamine]
- IC50 (CYP3A4): 34.4 µM
